From patent US20240208968A1, “ALPHA V BETA 6 AND ALPHA V BETA 1 INTEGRIN INHIBITORS AND USES THEREOF” (DiCE Molecules SV, Inc., priority 2021, published 2024)

Assays:
αvβ1 = αvβ1 (Homo sapiens, UniProt P05556+P06756); test: Solid Phase Integrin αvβ1 Assay; format: binding
In short: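 Wells coated with 1 µg/mL recombinant TGFb1-LAP and blocked with 2% BSA/TBST, 1 mM MnCl2; αvβ1 (added at 0.2 µg/mL) and compound incubated 90 min at room temperature. Bound integrin detected by streptavidin-HRP (20 min) and TMB after Mn-containing washes; IC50 by four-parameter logistic fit.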

αvβ6 = αvβ6 (Homo sapiens, UniProt P06756+P18564); test: Solid Phase Integrin αvβ6 Assay; format: binding
In short: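 Plates coated with 1 μg/mL recombinant TGFb1-LAP; compounds and αvβ6 (0.2 μg/mL diluted stock) incubated 1 h at room temperature in 2% BSA/TBST with 1 mM MnCl2. Bound integrin detected with streptavidin-HRP and TMB; IC50 from four-parameter logistic fits.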

αvβ1, sequence (P06756 31-992 limits assumed): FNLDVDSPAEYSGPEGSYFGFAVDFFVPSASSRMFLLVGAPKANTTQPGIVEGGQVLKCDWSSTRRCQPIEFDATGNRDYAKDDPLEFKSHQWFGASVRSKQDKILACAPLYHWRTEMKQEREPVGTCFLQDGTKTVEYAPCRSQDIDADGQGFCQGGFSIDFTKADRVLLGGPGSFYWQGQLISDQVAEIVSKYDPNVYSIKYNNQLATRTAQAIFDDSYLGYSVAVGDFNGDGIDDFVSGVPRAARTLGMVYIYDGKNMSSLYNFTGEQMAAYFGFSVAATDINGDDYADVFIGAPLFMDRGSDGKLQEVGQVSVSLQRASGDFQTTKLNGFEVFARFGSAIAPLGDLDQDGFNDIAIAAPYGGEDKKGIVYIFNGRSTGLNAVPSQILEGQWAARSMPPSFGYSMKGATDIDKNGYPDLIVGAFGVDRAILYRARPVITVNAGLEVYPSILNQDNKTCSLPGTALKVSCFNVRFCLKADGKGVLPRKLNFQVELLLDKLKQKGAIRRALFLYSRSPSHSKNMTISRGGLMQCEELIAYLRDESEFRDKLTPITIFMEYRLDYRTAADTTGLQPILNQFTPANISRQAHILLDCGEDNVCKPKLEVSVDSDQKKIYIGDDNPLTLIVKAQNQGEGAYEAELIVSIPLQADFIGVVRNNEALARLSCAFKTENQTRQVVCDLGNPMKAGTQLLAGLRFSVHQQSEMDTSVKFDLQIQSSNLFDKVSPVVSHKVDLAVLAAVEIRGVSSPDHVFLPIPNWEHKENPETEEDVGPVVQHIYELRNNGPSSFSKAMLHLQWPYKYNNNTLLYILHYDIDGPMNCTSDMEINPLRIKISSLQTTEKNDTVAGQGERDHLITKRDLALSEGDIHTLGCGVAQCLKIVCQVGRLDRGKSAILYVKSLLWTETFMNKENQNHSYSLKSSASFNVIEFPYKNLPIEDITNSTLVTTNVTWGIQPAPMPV
αvβ1, sequence (P05556 21-728 limits assumed): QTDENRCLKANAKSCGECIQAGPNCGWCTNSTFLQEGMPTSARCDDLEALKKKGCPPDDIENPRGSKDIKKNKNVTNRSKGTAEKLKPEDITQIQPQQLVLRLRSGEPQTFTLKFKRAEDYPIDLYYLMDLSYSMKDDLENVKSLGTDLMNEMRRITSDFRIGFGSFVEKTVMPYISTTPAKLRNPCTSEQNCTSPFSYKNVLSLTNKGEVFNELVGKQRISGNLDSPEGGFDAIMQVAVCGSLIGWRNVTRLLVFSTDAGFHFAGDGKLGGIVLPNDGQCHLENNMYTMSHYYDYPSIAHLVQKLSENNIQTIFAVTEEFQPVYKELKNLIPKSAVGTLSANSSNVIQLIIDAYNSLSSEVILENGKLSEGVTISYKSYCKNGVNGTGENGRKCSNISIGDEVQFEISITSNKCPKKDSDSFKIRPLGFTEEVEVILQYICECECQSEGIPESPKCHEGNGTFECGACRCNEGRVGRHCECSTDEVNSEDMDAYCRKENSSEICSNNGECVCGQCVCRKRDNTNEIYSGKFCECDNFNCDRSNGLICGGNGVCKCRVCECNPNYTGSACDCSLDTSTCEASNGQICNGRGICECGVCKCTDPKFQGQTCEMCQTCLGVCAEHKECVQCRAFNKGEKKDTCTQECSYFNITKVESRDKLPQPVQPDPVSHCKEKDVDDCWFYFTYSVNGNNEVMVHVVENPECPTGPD
αvβ6, sequence (P06756 31-992 limits assumed): as the sequence (P06756 31-992 limits assumed) above
αvβ6, sequence (P18564 22-707 limits assumed): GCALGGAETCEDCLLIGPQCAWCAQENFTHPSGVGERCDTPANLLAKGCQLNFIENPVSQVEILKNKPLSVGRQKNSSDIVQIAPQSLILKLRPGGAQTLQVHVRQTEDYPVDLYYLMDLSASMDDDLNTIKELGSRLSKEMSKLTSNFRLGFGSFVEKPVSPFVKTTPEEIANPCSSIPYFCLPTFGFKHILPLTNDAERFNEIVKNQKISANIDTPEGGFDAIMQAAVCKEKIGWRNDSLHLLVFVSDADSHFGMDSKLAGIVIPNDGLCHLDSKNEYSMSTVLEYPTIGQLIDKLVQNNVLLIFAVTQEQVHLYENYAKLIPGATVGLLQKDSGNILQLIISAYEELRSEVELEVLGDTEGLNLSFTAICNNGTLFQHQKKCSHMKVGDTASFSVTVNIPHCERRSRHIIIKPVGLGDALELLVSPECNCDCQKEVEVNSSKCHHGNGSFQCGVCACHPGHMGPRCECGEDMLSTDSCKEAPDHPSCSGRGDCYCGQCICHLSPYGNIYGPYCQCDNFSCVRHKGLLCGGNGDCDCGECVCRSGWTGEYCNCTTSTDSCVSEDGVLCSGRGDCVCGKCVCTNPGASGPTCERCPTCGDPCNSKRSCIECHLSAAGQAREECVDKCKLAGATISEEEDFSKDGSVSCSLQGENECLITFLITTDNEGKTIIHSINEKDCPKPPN

| SMILES | IC50 (αvβ1) | IC50 (αvβ6) |
| --- | --- | --- |
| CC1(CN[C@@H](CNC(=O)[C@@H]2CCCN(CCCc3ccc4c(n3)NCCC4)C2)C(=O)O)CCCCC1 [Compound 269, (S)-2-(((1-methylcyclohexyl)methyl)amino)-3-((R)-1-(3-(5,6,7,8-tetrahydro-1,8-naphthyridin-2-yl)propyl)piperidine-3-carboxamido)propanoic acid] | > 1000 nM | 100 to 1000 nM |
| O=C(NC[C@H](C(=O)O)c1ccccc1C1CC1)[C@@H]1CCCN(CCCc2ccc3c(n2)NCCC3)C1 [Compound 260-A, 2-(2-cyclopropylphenyl)-3-((R)-1-(3-(5,6,7,8-tetrahydro-1,8-naphthyridin-2-yl)propyl)piperidine-3-carboxamido)propanoic acid] | < 100 nM | < 100 nM |
| O=C(O)[C@H](CCO[C@@H]1CCCN(CCCc2ccc3c(n2)NCCC3)C1)c1cccc2c1cnn2CC1CC1 [Compound 500] | > 1000 nM | 100 to 1000 nM |
| C[C@@H]1[C@@H](C)OCCN1c1cccc([C@H](CC(=O)O)NC(=O)[C@@H]2CCCN(CCCc3ccc4c(n3)NCCC4)C2)c1 [Compound 585] | < 100 nM | < 100 nM |
| C[C@@H]1CN(c2cccc([C@@H](CNC(=O)[C@@H]3CCCN(CCCc4ccc5c(n4)NCCC5)C3)C(=O)O)c2)C[C@H](C)O1 [Compound 604] | < 100 nM | < 100 nM |
| O=C(O)C[C@H](CO[C@@H]1CCCN(CCCc2ccc3c(n2)NCCC3)C1)c1cncc(C2CC2)c1 [Compound 489] | < 100 nM | < 100 nM |
| O=C(O)C[C@H](NC(=O)[C@@H]1CCCN(CCCc2ccc3c(n2)NCCC3)C1)c1cccc2c1CCCC2 [Compound 212-A, 3-((R)-1-(3-(5,6,7,8-tetrahydro-1,8-naphthyridin-2-yl)propyl)piperidine-3-carboxamido)-3-(5,6,7,8-tetrahydronaphthalen-1-yl)propanoic acid] | > 1000 nM | > 1000 nM |
| O=C(Nc1ccccc1)N[C@@H](CNC(=O)[C@@H]1CCCN(CCCc2ccc3c(n2)NCCC3)C1)C(=O)O [Compound 567] | < 100 nM | < 100 nM |
| O=C(O)CC(NC(=O)[C@@H]1CCCN(CCCc2ccc3c(n2)NCCC3)C1)c1cccc2ccccc12 (stereo partly shown) [Compound 339] | < 100 nM | < 100 nM |
| O=C(O)[C@](O)(CO[C@@H]1CCCN(CCCCc2ccc3c(n2)NCCC3)C1)c1ccccc1 [Compound 455] | > 1000 nM | > 1000 nM |
| O=C(NC[C@@H](C(=O)O)c1ccc(F)c(-c2ccccc2)c1F)[C@@H]1CCCN(CCCc2ccc3c(n2)NCCC3)C1 [Compound 626] | < 100 nM | < 100 nM |
| CC1(C)CN(c2cc([C@@H](CO[C@@H]3CCCN(CCCc4ccc5c(n4)NCCC5)C3)CC(=O)O)ccc2Cl)CCO1 [Compound 647] | < 100 nM | < 100 nM |
| O=C(O)C[C@H](NC(=O)[C@@H]1CCCN(CCCc2ccc3c(n2)NCCC3)C1)c1cc(C2CC2)ccc1F [Compound 245-A, 3-(5-cyclopropyl-2-fluorophenyl)-3-((R)-1-(3-(5,6,7,8-tetrahydro-1,8-naphthyridin-2-yl)propyl)piperidine-3-carboxamido)propanoic acid] | 100 to 1000 nM | < 100 nM |
| O=C(NC[C@H](Nc1ncnc2ccccc12)C(=O)O)[C@@H]1CCCN(CCCc2ccc3c(n2)NCCC3)C1 [Compound 271, (S)-2-(quinazolin-4-ylamino)-3-((R)-1-(3-(5,6,7,8-tetrahydro-1,8-naphthyridin-2-yl)propyl)piperidine-3-carboxamido)propanoic acid] | < 100 nM | < 100 nM |
| O=C(O)[C@H](CCO[C@@H]1CCCN(CCCc2ccc3c(n2)NCCC3)C1)c1cccc(-c2ccccc2)c1 [Compound 329] | > 1000 nM | > 1000 nM |
| CNC(=O)[C@H]1C[C@H](C(=O)N[C@@H](CC(=O)O)c2ccccc2)CN(CCCc2ccc3c(n2)NCCC3)C1 [Compound 607] | < 100 nM | < 100 nM |
| O=C(O)[C@H](CCO[C@@H]1CCCN(CCCc2ccc3c(n2)NCCC3)C1)NC(=O)C12CCC(CC1)CC2 [Compound 333] | 100 to 1000 nM | 100 to 1000 nM |
| O=C(NC[C@H](C(=O)O)c1cccc2c1CCCC2)[C@@H]1CCCN(CCCc2ccc3c(n2)NCCC3)C1 [Compound 253-A, 3-((R)-1-(3-(5,6,7,8-tetrahydro-1,8-naphthyridin-2-yl)propyl)piperidine-3-carboxamido)-2-(5,6,7,8-tetrahydronaphthalen-1-yl)propanoic acid] | < 100 nM | < 100 nM |
| C[C@@H]1C[C@H](C(=O)NC[C@@H](C(=O)O)c2cccc(-c3ccccc3)c2)CN(CCCc2ccc3c(n2)NCCC3)C1 [Compound 642] | > 1000 nM | > 1000 nM |
| O=C(O)C[C@H](NC(=O)[C@@H]1CCCN(CCCc2ccc3c(n2)NCCC3)C1)c1cccc([C@@H]2CCOC2)c1 [Compound 533] | < 100 nM | < 100 nM |
| O=C(NC[C@@H](C(=O)O)c1cccc2c1CCC2)[C@@H]1CCCN(CCCc2ccc3c(n2)NCCC3)C1 [Compound 561] | < 100 nM | < 100 nM |
| O=C(CC[C@@H](NC(=O)[C@@H]1CCCN1S(=O)(=O)c1ccccc1)C(=O)O)N[C@H]1CCN(C(=O)CCCc2ccc3c(n2)NCCC3)C1 [Compound 441] | < 100 nM | > 1000 nM |

Results, then the compound that gave them:

| IC50 (αvβ1) | IC50 (αvβ6) | SMILES |
| --- | --- | --- |
| > 1000 nM | > 1000 nM | O=C(CC[C@@H](NC(=O)C12CCC(CC1)CC2)C(=O)O)N[C@H]1CCN(C(=O)CCCc2ccc3c(n2)NCCC3)C1 [Compound 433] |
| 100 to 1000 nM | > 1000 nM | C[C@H]1C[C@@H](C(=O)NC[C@@H](C(=O)O)c2ccc3ccccc3c2)CN(CCCc2ccc3c(n2)NCCC3)C1 [Compound 645] |
| < 100 nM | < 100 nM | C[C@@H]1CN(c2cccc([C@H](CC(=O)O)NC(=O)[C@@H]3CCCN(CCCc4ccc5c(n4)NCCC5)C3)c2)C[C@H](C)O1 [Compound 236, (S)-3-(3-((2S,6R)-2,6-dimethylmorpholino)phenyl)-3-((R)-1-(3-(5,6,7,8-tetrahydro-1,8-naphthyridin-2-yl)propyl)piperidine-3-carboxamido)propanoic acid] |
| > 1000 nM | 100 to 1000 nM | O=C(O)C[C@H](CO[C@@H]1CCCN(CCc2ccc3c(n2)NCCC3)C1)c1ccccc1 [Compound 353] |
| > 1000 nM | > 1000 nM | O=C(O)[C@](O)(CO[C@@H]1CCCN(Cc2ccc3c(n2)NCCC3)C1)c1ccccc1 [Compound 478] |
| < 100 nM | < 100 nM | O=C(N[C@@H](CNC(=O)[C@@H]1CCCN(CCCc2ccc3c(n2)NCCC3)C1)C(=O)O)C1CCC(F)(F)CC1 [Compound 366] |
| 100 to 1000 nM | 100 to 1000 nM | O=C(O)CC(CO[C@H]1CCCN(CCCc2ccc3c(n2)NCCC3)C1)c1ccccc1 (stereo partly shown) [Compound 337] |
| < 100 nM | < 100 nM | O=C(NC[C@H](C(=O)O)c1ccc(-c2ccccc2)cc1)[C@@H]1CCCN(CCCc2ccc3c(n2)NCCC3)C1 [Compound 342] |
| < 100 nM | < 100 nM | O=C(NC[C@@H](Nc1cncc(-c2ccccc2)c1)C(=O)O)[C@@H]1CCCN(CCCc2ccc3c(n2)NCCC3)C1 [Compound 376] |
| < 100 nM | < 100 nM | O=C(NC[C@H](NS(=O)(=O)c1ccccc1)C(=O)O)[C@@H]1CCCN(CCCc2ccc3c(n2)NCCC3)C1 [Compound 272, (S)-2-(phenylsulfonamido)-3-((R)-1-(3-(5,6,7,8-tetrahydro-1,8-naphthyridin-2-yl)propyl)piperidine-3-carboxamido)propanoic acid] |
| < 100 nM | < 100 nM | O=C(O)[C@H](CCO[C@H]1CCCN(CCCc2ccc3c(n2)NCCC3)C1)NC(=O)C12CCC(CC1)CC2 [Compound 447] |
| < 100 nM | < 100 nM | O=C(NC[C@H](C(=O)O)c1ccccc1)[C@@H]1CCCN(CCCc2ccc3c(n2)NCCC3)C1 [Compound 247, (R)-2-phenyl-3-((R)-1-(3-(5,6,7,8-tetrahydro-1,8-naphthyridin-2-yl)propyl)piperidine-3-carboxamido)propanoic acid] |
| < 100 nM | < 100 nM | CC1(C)CCN(c2cccc([C@@H](CNC(=O)[C@@H]3CCCN(CCCc4ccc5c(n4)NCCC5)C3)C(=O)O)c2)CC1 [Compound 601] |
| < 100 nM | 100 to 1000 nM | O=C(O)[C@@H](CCO[C@@H]1CCCN(CCc2ccc3c(n2)NCCC3)C1)NC(=O)C12CCC(CC1)CC2 [Compound 383] |
| < 100 nM | < 100 nM | O=C(O)C[C@H](NC(=O)[C@@H]1CCCN(CCCc2ccc3c(n2)NCCC3)C1)c1cccc(Oc2ccccc2)c1 [Compound 209-A, 3-(3-phenoxyphenyl)-3-((R)-1-(3-(5,6,7,8-tetrahydro-1,8-naphthyridin-2-yl)propyl)piperidine-3-carboxamido)propanoic acid] |
| < 100 nM | < 100 nM | O=C(NC[C@@H](C(=O)O)c1cnc2c(ccn2CC2CC2)c1)[C@@H]1CCCN(CCCc2ccc3c(n2)NCCC3)C1 [Compound 326] |
| < 100 nM | < 100 nM | O=C(N[C@@H](CNC(=O)[C@@H]1CCCN(CCCc2ccc3c(n2)NCCC3)C1)C(=O)O)c1c(Cl)cccc1Cl [Compound 362] |
| 100 to 1000 nM | > 1000 nM | O=C(O)[C@H](CCO[C@@H]1CCCN(Cc2ccc3c(n2)NCCC3)C1)NC(=O)C12CCC(CC1)CC2 [Compound 397] |
| < 100 nM | < 100 nM | CC1(C)CN(c2cccc([C@H](CC(=O)O)NC(=O)[C@@H]3CCCN(CCCc4ccc5c(n4)NCCC5)C3)c2)CCO1 [Compound 234, (S)-3-(3-(2,2-dimethylmorpholino)phenyl)-3-((R)-1-(3-(5,6,7,8-tetrahydro-1,8-naphthyridin-2-yl)propyl)piperidine-3-carboxamido)propanoic acid] |
